The nature of test [1]: DPPH radical scavenging activity test. Format: biochemical. The note with it: 25 μM sample solution in ethanol, 1 h in dark, absorbance 517 nm; average ± SD of three runs. On the procedure: DPPH (α,α-diphenyl-β-picrylhydradil) is a purple stable radical having a maximum absorption at 517 nm, which is converted into colorless hydrazine by gaining hydrogen. This color reaction was utilized so as to determine the radical scavenging activity of each of Compounds 1 to 4 and the like. That is, each of Compounds 1 to 4 was dissolved in ethanol to prepare 3 ml of a sample solution having a concentration of 25 μM. Thereafter, to each of the resultant sample solutions, 0.75 ml of a 0.5 mM DPPH solution (whose solvent was ethanol) was added and stirred, and reacted in a dark place for one hour, followed by the determination of an absorbance at 517 nm. Furthermore, in place of Compounds 1 to 4, BHT (butylated hydroxytoluene), α-tocopherol or eriodictyol was used so as to determine an absorbance according to a similar procedure to the above. Besides, instead of the above sample solutions, ethanol was used as a control so as to determine an absorbance according to a similar procedure to the above. Then the radical scavenging activity (%) of each of the materials was calculated using the following calculation formula 1. Incidentally, each of values shown in Table 1 is the average value and standard deviation of values obtained from three runs. (Radical Scavenging Activity)=[{(Absorbance of Control)−(Absorbance of Sample Solution)}/(Absorbance of Control)]×100 Calculation Formula 1

A short description of the next test: β-carotene fading test. The conditions noted are these: 20 μM in reaction liquid, 60° C. for 60 minutes, absorbance 470 nm; average ± SD of three runs. Format: biochemical. The protocol:
β-carotene will fade due to the reaction of linoleic acid peroxide, which is produced by the autoxidation of linoleic acid, with a double bond in β-carotene. This phenomenon was utilized so as to determine the antioxidant activity of each of Compounds 1 to 4 and the like. That is, first of all, 2 ml of a 200 mg/ml solution of Tween-40 in chloroform, 0.4 ml of a 100 mg/ml solution of linoleic acid in chloroform, and 3 ml of a 0.1 mg/ml solution of β-carotene in chloroform were mixed, and thereafter the solvent was removed by using a nitrogen gas. Subsequently, 100 ml of distilled water was added thereto, and adequately stirred to obtain an emulsion. To 3 ml of this emulsion, ethanol was added to completely dissolve the solute in the solvent. Thereafter, each of Compounds 1 to 4 was dissolved in ethanol so as to prepare a sample solution having a concentration of 1.2 mM. 50 μl of the sample solution was mixed with the above emulsion wherein the solute had been completely dissolved so as to prepare a reaction liquid (or a sample reaction liquid). Then the concentration of each of Compounds 1 to 4 in the reaction liquid was 20 μM. The reaction liquid was incubated at 60° C. for 60 minutes. Then the absorbance of each of the reaction liquid before the incubation and the reaction liquid after the incubation was determined at 470 nm. Furthermore, BHT, α-tocopherol, or eriodictyol was used in place of Compounds 1 to 4 so as to determine the absorbance of the reaction liquid before and after incubation according to a similar procedure to the above-mentioned one. In addition, as a control, a reaction liquid (or a control reaction liquid) wherein no sample solution was contained was prepared so as to determine the absorbance of the reaction liquid before and after incubation according to a similar procedure to the above-mentioned one. The antioxidant activity (%) of each of the materials was calculated using the following calculation formula 2. Incidentally, each of values shown in Table 1 is the average value and standard deviation of values obtained from three runs. (Antioxidant Activity)=[{(Fading Rate of Control)−(Fading Rate of Sample Solution)}/(Fading Rate of Control)]×100 Calculation Formula 2
It should be noted that in the calculation formula 2, “Fading Rate of Control” is the natural logarithm of a value which is acquired by dividing the absorbance of the control reaction liquid before incubation by the absorbance of the control reaction liquid after incubation and further by dividing the resultant value by 60; and “Fading Rate of Sample Solution” is the natural logarithm of a value which is acquired by dividing the absorbance of the sample reaction liquid before incubation by the absorbance of the sample reaction liquid after incubation and further by dividing the resultant value by 60.

Test [2] has as its system breast cancer cells (MCF-7). Put plainly: Breast cancer cell proliferation-inhibition test. It is filed as cell-based. The conditions noted are these: 0.1 nM estradiol, Control 1 at 0 day = 1. The protocol:
When breast cancer cells (MCF-7) are cultured, if estradiol (or 17β-estradiol) having a cell-proliferation accelerating action, is added thereto, the proliferation of breast cancer cells can be simply promoted in a short period. This phenomenon was utilized so as to examine the effect of each of Compounds 1 to 4 and the like on the proliferation inhibition of breast cancer cells. That is, first of all, each of Compounds 1 to 4 was diluted with dimethyl sulfoxide to prepare a sample solution. Thereafter, 2×10^3 of MCF-7 were inoculated in each well of a 96-well plate, and estradiol and the sample solution were added thereto after 4 hours. Estradiol was added to each compartment so that the final concentration of estradiol can be 0.1 nM, and the final concentration of the sample solution can be 0.2 μM, 2 μM, or 20 μM. After incubation for a predetermined period of time (three or five days), each of the media was replaced with a new medium, and an enzyme solution (Cell counting Kit-8: Wako) was added to the new medium in an amount of 10% of the new medium. After maintained the medium in an incubator at a temperature of 37° C. for two hours, the absorbance of the medium was determined at a wavelength of 450 nm (a reference wave length of 630 nm) by means of a spectrophotometer so as to quantify the number of living cells in each compartment.
As for the compartment whose incubation period is predetermined to be five days, on the third day of the incubation, the medium was replaced with a new medium, and thereafter, estradiol and a sample solution were added to the new medium, and the incubation was continued till fifth day. As for the compartment whose incubation period is predetermined to be 0 day, at four hours after the cells were inoculated, an enzyme solution was added to the medium. The medium was maintained in an incubator at a temperature of 37° C. for two hours, followed by determining the absorbance.
Instead of Compounds 1 to 4, eriodictyol was used to determine the absorbance according to a similar procedure to the above-mentioned one, and thus the number of living cells in each compartment was quantified. Furthermore, Control 1 to which neither estradiol nor a sample had been added was used to determine the absorbance according to a similar procedure to the above-mentioned one, and thus the number of living cells in each compartment was quantified, while Control 2 to which no sample had been added was used to determine the absorbance according to a similar procedure to the above-mentioned one, and thus the number of living cells in each compartment was quantified.
When it is assumed that the number of living cells of Control 1 as quantified after a zero-day incubation period is 1, the relative value of living cells as quantified in each of the runs mentioned above is shown in Table 2. Incidentally, each of values shown in Table 2 is the average value and standard deviation of values obtained from eight wells.

As for `O=C1C[C@@H](c2ccc(O)c(O)c2)Oc2cc(O)cc(O)c21` [Eriodictyol, eriodictyol, reference compound], the “Radical Scavenging Activity (%) from DPPH Radical Scavenging Activity Test” value in test [1] is reported as 68.82 ± 1.12%. Moreover, in “β-carotene fading test”, the “Antioxidant Activity (%) from β-carotene Fading Test” value was 81.47 ± 2.48%. Further, the “Relative Value of Living Cells” value in test [2] (0.2 μM sample, after 3-days incubation) is 2.88 ± 0.22; in test [2] (0.2 μM sample, after 5-days incubation), 7.33 ± 0.60; in test [2] (0.2 μM sample, on 0-day incubation, mean ± SD of eight wells), 0.96 ± 0.04; in test [2] (2 μM sample, after 3-days incubation), 2.90 ± 0.13; in test [2] (2 μM sample, after 5-days incubation) it was 7.16 ± 0.36; in test [2] (2 μM sample, on 0-day incubation), 0.98 ± 0.07. Besides, the “Relative Value of Living Cells” value in test [2] (20 μM sample, after 3-days incubation) turned out to be 2.54 ± 0.30; in test [2] (20 μM sample, after 5-days incubation), 5.13 ± 0.62; in test [2] (20 μM sample, on 0-day incubation), 1.01 ± 0.05.
For the compound `Cc1cc(C(C)(C)C)c(O)c(C(C)(C)C)c1` [BHT, butylated hydroxytoluene, reference compound], in test [1], the “Radical Scavenging Activity (%) from DPPH Radical Scavenging Activity Test” value worked out at 28.51 ± 7.48%. Further, in the test “β-carotene fading test”, the “Antioxidant Activity (%) from β-carotene Fading Test” value is 85.02 ± 1.89%.
The matching figures for `Cc1c(C)c2c(c(C)c1O)CC[C@@](C)(CCC[C@H](C)CCC[C@H](C)CCCC(C)C)O2` [α-tocopherol, reference compound]: 58.87 ± 1.24% and 93.00 ± 0.73%.
